Here are results for six compounds from patent US9090609B2, “Benzyl-substituted carbamates and use thereof” (BAYER INTELLECTUAL PROPERTY GMBH, priority 2010, dated 2015).

Test [1] concerns aorta rings. The experiment in a line: Vasorelaxant action in vitro (phenylephrine-contracted aorta rings). To be noted: Oryctolagus cuniculus; concentration needed to reduce the phenylephrine contraction of rabbit aorta rings by 50%. As to the method:
B-1. Vasorelaxant Action In Vitro
Rabbits are stunned by a blow to the neck and exsanguinated. The aorta is removed, freed from adhering tissue and divided into rings of a width of 1.5 mm. The rings are placed individually under an initial tension in 5 ml organ baths with Krebs-Henseleit solution which is at 37° C., is gassed with carbogen and has the following composition (in each case mM): sodium chloride 119; potassium chloride: 4.8; calcium chloride dihydrate: 1; magnesium sulfate heptahydrate: 1.4; potassium dihydrogenphosphate: 1.2; sodium bicarbonate: 25; glucose: 10. The contractile force is determined with Statham UC2 cells, amplified and digitalized using A/D transducers (DAS 1802 HC, Keithley Instruments Munich), and recorded in parallel on linear recorders. To obtain a contraction, phenylephrine is added to the bath cumulatively in increasing concentration. After several control cycles, the substance to be investigated is added in each further run in increasing dosage in each case, and the height of the contraction achieved is compared with the height of the contraction reached in the last preceding run. This is used to calculate the concentration needed to reduce the magnitude of the control value by 50% (IC50 value). The standard administration volume is 5 μl; the DMSO content in the bath solution corresponds to 0.1%.

Test [2] concerns the target T1, recombinant guanylate cyclase reporter cell line (Rattus norvegicus, UniProt P19686+P20595).
T1 construct: expressed in transfected cells; host or cells: recombinant reporter cell line
T1 sequence (P20595 1-619): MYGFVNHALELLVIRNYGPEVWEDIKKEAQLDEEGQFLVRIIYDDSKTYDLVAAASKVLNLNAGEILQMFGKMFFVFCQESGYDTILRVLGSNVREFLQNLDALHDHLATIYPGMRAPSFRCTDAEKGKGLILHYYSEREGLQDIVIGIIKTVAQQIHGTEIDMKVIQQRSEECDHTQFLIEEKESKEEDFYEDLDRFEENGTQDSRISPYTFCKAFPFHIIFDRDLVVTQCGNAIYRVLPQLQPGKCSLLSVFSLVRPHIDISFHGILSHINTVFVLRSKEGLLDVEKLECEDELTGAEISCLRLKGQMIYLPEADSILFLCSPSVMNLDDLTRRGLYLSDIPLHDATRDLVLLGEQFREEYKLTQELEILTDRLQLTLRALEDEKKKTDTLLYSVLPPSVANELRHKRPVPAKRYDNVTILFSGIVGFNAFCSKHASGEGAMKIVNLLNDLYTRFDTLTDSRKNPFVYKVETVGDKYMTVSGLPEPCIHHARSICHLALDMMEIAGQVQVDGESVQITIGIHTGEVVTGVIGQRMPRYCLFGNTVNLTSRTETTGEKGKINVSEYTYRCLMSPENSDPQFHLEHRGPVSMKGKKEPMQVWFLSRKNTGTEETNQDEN
T1 sequence (P19686 1-690): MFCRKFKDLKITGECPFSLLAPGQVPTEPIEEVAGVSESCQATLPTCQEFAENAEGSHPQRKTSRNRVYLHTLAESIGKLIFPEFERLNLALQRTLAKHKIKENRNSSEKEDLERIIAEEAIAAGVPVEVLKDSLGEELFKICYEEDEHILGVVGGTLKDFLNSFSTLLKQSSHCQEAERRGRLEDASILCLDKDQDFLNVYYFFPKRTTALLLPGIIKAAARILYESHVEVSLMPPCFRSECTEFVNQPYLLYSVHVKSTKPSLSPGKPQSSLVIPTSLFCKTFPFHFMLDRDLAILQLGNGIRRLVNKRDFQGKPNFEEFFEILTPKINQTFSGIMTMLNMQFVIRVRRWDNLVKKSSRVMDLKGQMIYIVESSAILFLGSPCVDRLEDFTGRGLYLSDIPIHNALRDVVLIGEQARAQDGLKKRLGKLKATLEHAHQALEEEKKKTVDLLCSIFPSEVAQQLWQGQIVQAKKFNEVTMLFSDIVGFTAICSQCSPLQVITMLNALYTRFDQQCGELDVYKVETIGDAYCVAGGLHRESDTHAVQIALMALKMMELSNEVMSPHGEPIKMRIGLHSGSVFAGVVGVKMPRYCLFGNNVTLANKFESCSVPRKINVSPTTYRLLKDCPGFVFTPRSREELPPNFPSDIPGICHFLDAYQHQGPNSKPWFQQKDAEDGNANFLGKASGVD
In words: Effect on a recombinant guanylate cyclase reporter cell line. Format: cell-based. As to the method: B-2. Effect on a Recombinant Guanylate Cyclase Reporter Cell Line
The cellular activity of the compounds according to the invention is determined using a recombinant guanylate cyclase reporter cell line, as described in F. Wunder et al., Anal. Biochem. 339, 104-112 (2005).

Molecules are shown by their SMILES.

For orientation: IC50 means the concentration at which inhibition is half-maximal. Compound `COC(=O)N(Cc1ccccc1)c1cnc(-n2nc(Cc3ccccc3F)c3ncccc32)nc1N` [Example 2, Methyl {4-amino-2-[3-(2-fluorobenzyl)-1H-pyrazolo[4,3-b]pyridin−1-yl]pyrimidin-5-yl}benzylcarbamate] registered an IC50 in test [1] of 0.705 nM. For the same compound, the “MEC (minimum effective concentration)” value in test [2] was 0.3 µM.
Regarding `COC(=O)N(Cc1ccccc1F)c1c(N)nc(-n2nc(Cc3ccccc3F)c3ncccc32)nc1N` [Example 3, Methyl {4,6-diamino-2-[3-(2-fluorobenzyl)-1H-pyrazolo[4,3-b]pyridin-1-yl]pyrimidin-5-yl}(2-fluorobenzyl)carbamate], inhibition in test [1] was half-maximal at 0.399 nM (IC50). Besides, the “MEC (minimum effective concentration)” value in test [2] is 0.1 µM.
The corresponding values for `CC(C)OC(=O)N(Cc1ccccc1)c1c(N)nc(-n2nc(Cc3ccccc3F)c3ncc(F)cc32)nc1N` [Example 6, Isopropyl benzyl{4,6-diamino-2-[6-fluoro-3-(2-fluorobenzyl)-1H-pyrazolo[4,3-b]pyridin-1-yl]pyrimidin-5-yl}carbamate] are 0.745 nM and 0.1 µM.
With `COC(=O)N(Cc1ccccc1)c1c(N)nc(-n2nc(Cc3ccccc3F)c3ncc(F)cc32)nc1N` [Example 8, Methyl benzyl{4,6-diamino-2-[6-fluoro-3-(2-fluorobenzyl)-1H-pyrazolo[4,3-b]pyridin-1-yl]pyrimidin-5-yl}carbamate], the IC50 in test [1] is 0.154 nM.
`COC(=O)N(Cc1ccc(F)cc1)c1c(N)nc(-n2nc(Cc3ccccc3F)c3ncccc32)nc1N` [Example 4, Methyl {4,6-diamino-2-[3-(2-fluorobenzyl)-1H-pyrazolo[4,3-b]pyridin-1-yl]pyrimidin-5-yl}(4-fluorobenzyl)carbamate] showed an IC50 in test [1] of 0.359 nM. Further, the “MEC (minimum effective concentration)” value in test [2] came to 0.1 µM.
`COC(=O)N(Cc1ccccc1)c1c(N)nc(-n2nc(Cc3ccccc3F)c3ncccc32)nc1N` [Example 5, Methyl benzyl{4,6-diamino-2-[3-(2-fluorobenzyl)-1H-pyrazolo[4,3-b]pyridin-1-yl]pyrimidin-5-yl}carbamate]: in test [1], 0.185 nM corresponded to half-maximal inhibition (IC50). Further, the “MEC (minimum effective concentration)” value in test [2] is 0.1 µM.
